{"source": "patent US5292752A", "about": "“Antithrombotic compounds” (Merrell Dow Pharmaceuticals Inc., priority 1992, dated 1994)", "key": {"5HT2 receptor [1]": {"target": "T1, 5HT2 receptor (Mus musculus, UniProt P35363)", "T1 construct": "from tissue; host or cells: whole living mouse (endogenous receptor of the brain)", "T1 sequence (P35363 whole entry)": "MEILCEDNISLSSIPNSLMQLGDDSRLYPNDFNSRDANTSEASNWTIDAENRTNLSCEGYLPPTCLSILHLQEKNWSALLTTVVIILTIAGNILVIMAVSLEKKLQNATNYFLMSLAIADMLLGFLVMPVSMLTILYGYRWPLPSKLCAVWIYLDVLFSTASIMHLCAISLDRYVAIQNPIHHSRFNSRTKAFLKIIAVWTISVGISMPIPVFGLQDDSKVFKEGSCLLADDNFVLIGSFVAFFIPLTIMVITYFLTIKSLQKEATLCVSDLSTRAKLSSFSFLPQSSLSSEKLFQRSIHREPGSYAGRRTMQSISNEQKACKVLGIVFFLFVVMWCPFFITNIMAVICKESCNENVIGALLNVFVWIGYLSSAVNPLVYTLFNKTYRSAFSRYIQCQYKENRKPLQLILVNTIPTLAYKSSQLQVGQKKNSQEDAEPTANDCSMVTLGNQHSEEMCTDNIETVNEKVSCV", "experiment": "5-DMT head twitch test", "format": "in vivo", "details": "ip, mice, 5-DMT induced head twitch, read-out: ED50 FOR ABOLITION OF HEAD TWITCH", "method": "Psychopharmacol., Vol. 3, pages 89-92, (1979). The administration of 5-methoxy-N,N-dimethyltryptamine (DMT) to mice typically produces a characteristic head twitch in the mice. In this test, the mice are administered 5-DMT and a test compound. An absence of head twitches in the mice is considered to be predictive of the ability of the test compound to antagonize the 5HT2 receptor in vivo."}, "5HT2 receptor [2]": {"target": "T2, 5HT2 receptor (Rattus norvegicus, UniProt P14842)", "T2 construct": "from tissue", "T2 sequence (P14842 whole entry)": "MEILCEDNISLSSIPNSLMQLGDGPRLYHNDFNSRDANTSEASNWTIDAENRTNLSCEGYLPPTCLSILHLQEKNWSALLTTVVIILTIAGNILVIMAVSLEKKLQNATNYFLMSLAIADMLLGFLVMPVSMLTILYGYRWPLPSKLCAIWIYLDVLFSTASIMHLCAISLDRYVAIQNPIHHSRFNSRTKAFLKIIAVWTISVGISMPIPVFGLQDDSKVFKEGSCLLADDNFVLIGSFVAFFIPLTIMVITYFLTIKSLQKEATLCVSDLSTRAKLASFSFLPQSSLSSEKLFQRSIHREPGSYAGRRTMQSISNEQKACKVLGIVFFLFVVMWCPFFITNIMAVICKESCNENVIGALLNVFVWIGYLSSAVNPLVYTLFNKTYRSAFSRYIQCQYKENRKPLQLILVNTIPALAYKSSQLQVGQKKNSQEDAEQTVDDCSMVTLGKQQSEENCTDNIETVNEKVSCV", "experiment": "[3H] spiroperidol binding test", "source_text": "In this test, 5HT2 receptors are exposed to both [^3 H] spiroperidol, (a substance known to have a specific affinity for the receptor) and the test compound. The extent to which there is a decrease in binding of the [^3 H] spiroperidol to the receptor is indicative of the affinity of the test compound for the 5HT2 receptor.\n1-(4-Fluorophenyl)-2-[4-[(4-methanesulfonamidophenyl)carbonyl]-1-piperidinyl]-ethanone (Compound #1) and 1-(4-fluorophenyl)-2-[4-[(4-acetamidophenyl)carbonyl]-1-piperidinyl]-ethanone (Compound #2) were tested in this procedure. For comparative purposes, 1-(3-pyridyl)-2-[4 -[(4-methanesulfonamidophenyl)carbonyl]-1-piperidinyl]ethanone (Compound #3) and N-[4-[[1-[2-(4-fluoro phenyl)ethyl]-4-piperidne]carbenyl]phenyl] methane sulfononamide (compound #4) were also tested. Compound #4 was described in European Application 0 320 983, supra, as Example Number 8 and was prepared in that manner."}, "thrombus formation": {"system": "thrombus formation", "details": "canine models; Bush et al., Drug Development Research, Vol. 7 (1986); cited from earlier work"}, "[3]": {"system": "coronary vessel constriction", "details": "patients with stable angina; Golino et al., NEJM 1991; cited from earlier work"}, "[4]": {"system": "rabbit vascular smooth muscle cells", "details": "culture of rabbit vascular smooth muscle cells; Araki et al., Atherosclerosis, 83 (1990); cited from earlier work"}, "[5]": {"system": "phospholipase C mediated hydrolysis of phosphoinositides in rabbit vascular smooth muscle cells", "details": "Araki et al.; cited from earlier work"}}, "data": [{"smiles": "CS(=O)(=O)Nc1ccc(C(=O)C2CCN(CC(=O)c3ccc(F)cc3)CC2)cc1", "note": "[Compound #1, 1-(4-Fluorophenyl)-2-[4-[(4-methanesulfonamidophenyl)carbonyl]-1-piperidinyl]-ethanone]", "values": [{"measurement": "ED50", "setting": "5HT2 receptor [1]", "result": 0.034, "unit": "mg/kg"}]}, {"smiles": "CC(=O)Nc1ccc(C(=O)C2CCN(CC(=O)c3ccc(F)cc3)CC2)cc1", "note": "[Compound #2, 1-(4-fluorophenyl)-2-[4-[(4-acetamidophenyl)carbonyl]-1-piperidinyl]-ethanone]", "values": [{"measurement": "ED50", "setting": "5HT2 receptor [1]", "result": 0.051, "unit": "mg/kg"}]}, {"smiles": "CS(=O)(=O)Nc1ccc(C(=O)C2CCN(CC(=O)c3cccnc3)CC2)cc1", "note": "[Compound #3, 1-(3-pyridyl)-2-[4-[(4-methanesulfonamidophenyl)carbonyl]-1-piperidinyl]-ethanone]", "values": [{"measurement": "ED50", "setting": "5HT2 receptor [1]", "result": "> 200", "unit": "mg/kg"}]}, {"smiles": "CS(=O)(=O)Nc1ccc(C(=O)C2CCN(CCc3ccc(F)cc3)CC2)cc1", "note": "[Compound #4, N-[4-[[1-[2-(4-fluorophenyl)ethyl]-4-piperidne]carbenyl]phenyl] methane sulfononamide]", "values": [{"measurement": "IC50", "setting": "5HT2 receptor [2]", "result": 0.1, "unit": "µM"}, {"measurement": "ED50", "setting": "5HT2 receptor [1]", "result": 0.49, "unit": "mg/kg"}]}, {"smiles": "O=C(c1ccc(F)cc1)C1CCN(CCn2c(=O)[nH]c3ccccc3c2=O)CC1", "note": "[Ketanserin]", "values": [{"measurement": "prevention of thrombus formation", "setting": "thrombus formation", "result": "extremely effective in preventing thrombus formation"}, {"measurement": "block of coronary vessel constriction", "setting": "[3]", "result": "blocked coronary vessel constriction"}, {"measurement": "inhibition of PDGF induced DNA synthesis", "setting": "[4]", "result": "inhibited PDGF induced DNA synthesis"}, {"measurement": "inhibition of phospholipase C mediated hydrolysis of phosphoinositides", "setting": "[5]", "result": "inhibited phospholipase C mediated hydrolysis of phosphoinositides"}]}]}
